Measured values: patent US20230181746A1, “BENZOYLHYDRAZIDE-DERIVED HDAC DEGRADERS AS THERAPEUTICS FOR TREATING CANCER AND OTHER HUMAN DISEASES” (University of Florida Research Foundation, Inc., priority 2020, published 2023)

Tests used:
HDAC3 [1] = target: T1, HDAC3 (Homo sapiens, UniProt O15379); experiment: HDAC3 degradation in MDA-MB-231 xenograft tumors; format: in vivo; parameters: from tissue; host or cells: MDA-MB-231 xenograft tumours from NSG mice; conditions: female NSG mice, MDA-MB-231 xenografts, 50 mg/kg i.p., tumors 24 h after dosing
T1 sequence (O15379 whole entry): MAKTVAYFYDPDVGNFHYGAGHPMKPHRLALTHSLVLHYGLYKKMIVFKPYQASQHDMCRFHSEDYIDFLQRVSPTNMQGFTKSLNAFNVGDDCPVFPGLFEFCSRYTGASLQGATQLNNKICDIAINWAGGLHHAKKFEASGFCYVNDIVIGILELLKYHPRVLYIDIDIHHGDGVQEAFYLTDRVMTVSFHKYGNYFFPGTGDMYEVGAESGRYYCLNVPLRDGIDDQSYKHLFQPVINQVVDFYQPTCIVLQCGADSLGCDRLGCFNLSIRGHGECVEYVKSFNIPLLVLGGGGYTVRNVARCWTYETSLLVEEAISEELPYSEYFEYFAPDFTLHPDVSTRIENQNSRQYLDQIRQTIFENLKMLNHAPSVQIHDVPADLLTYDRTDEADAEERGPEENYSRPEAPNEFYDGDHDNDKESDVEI
T1 sequence (Q9Y618 395-498 partner limits assumed): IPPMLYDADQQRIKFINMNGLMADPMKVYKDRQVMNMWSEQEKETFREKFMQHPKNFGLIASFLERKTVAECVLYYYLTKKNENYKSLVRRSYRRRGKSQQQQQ
Procedure: NSG mice bearing MDA-MB-231 xenografts were dosed with vehicle or XZ9002 (50 mg/kg) by i.p. Tumors were dissected from euthanized mice 24 h after dosing. The tumor lysates were analyzed by WB. The quantification is shown in lower panels. ***: p<0.0001 (t-test vs vehicle).

[2] = tested on: histone acetylation (H3K27ac, H4K5ac, acetyl-lysine); experiment: Histone acetylation in cells, Western blot; format: cell-based; conditions: MDA-MB-468 cells; only moderate effects compared to 15 and CRBN-based PROTACs
Procedure: The culture of the triple-negative breast cancer cell line MDA-MB-468 and the ER+ breast cancer cell line T47D was exposed to vehicle control (DMSO) and the indicated compounds at specified concentrations for 14 h. Cells were lysed for WB with antibodies against the indicated proteins. Antibodies against acetylated histones at specific sites (H3K27 and H4K5) and acetyl-lysine were used to assess levels of histone acetylation. Levels of HDAC3 were normalized against that of tubulin and % of HDAC3 protein levels in cells treated with the indicated compounds relative to that in DMSO control is shown.
Cell lines were obtained from ATCC and subsequently authenticated. Cells were cultured with DMEM supplemented with 10% bovine calf serum, penicillin to 10 units/mL, and streptomycin to 10 μg/mL. For viability assays, 5,000 cells/well were seeded in 96-well plates. Compounds at a specified concentration or DMSO were added 24 h later. Viability assays were performed 72 h after compound addition using the CellTiter-Glo reagents (Promega). For colony formation assay, cells (˜1,000 cells/well) were seeded in a 24-well plate in quadruplicates. At 24 h after seeding, DMSO, XZ9002, or XZ9002-NC were added at a specified concentration. […]

HDAC3 [3] = target: T1, HDAC3; experiment: HDAC3 degradation in breast cancer cell lines, Western blot; format: cell-based; parameters: endogenous in cells; host or cells: MDA-MB-468, T47D, MCF7; conditions: MDA-MB-468 cells
From the text: Data are presented as representative figures of two independent experiments.
Cells were lysed for WB with antibodies against the indicated proteins. Antibodies against acetylated histones at specific sites (H3K27 and H4K5) and acetyl-lysine were used to assess levels of histone acetylation.
Cells were lysed for WB. […] The indicated BC cell lines were exposed to DMSO, XZ9002, or XZ9002-NC at the indicated concentrations. Colonies were fixed and stained.
Cell lines were obtained from ATCC and subsequently authenticated. Cells were cultured with DMEM supplemented with 10% bovine calf serum, penicillin to 10 units/mL, and streptomycin to 10 μg/mL. For viability assays, 5,000 cells/well were seeded in 96-well plates. […] For colony formation assay, cells (˜1,000 cells/well) were seeded in a 24-well plate in quadruplicates. […] Medium was replaced with freshly prepared medium containing DMSO, XZ9002 or XZ9002-NC every five days until visible colonies appeared, typically in 15 to 20 days after initial cell seeding. Cells were fixed with 4% paraformaldehyde for 15 min and stained with 2% methylene blue in 20% ethanol for 30 min to 1 h. The cells were washed twice with distilled water and dried in air. For western blotting, cell cultures were exposed to compounds as indicated in relevant figures. Medium was removed from culture plate, and 1 x passive lysis buffer was then added, the plates were frozen at −80° C. overnight and thawed at room temperature. The total cell lysates were mixed with a one fifth volume of 6x SDS sample buffer, heated at 95° C. for 5 min and cooled on ice. The lysates were cleared by centrifugation and then subjected to SDS-PAGE and western blotting essentially as described.

HDAC2 = HDAC2 (Homo sapiens, UniProt Q92769); experiment: In vitro HDAC activity assay (HDAC-Glo I/II), HDAC2; format: biochemical; parameters: purchased BPS Bioscience 50002; conditions: average of three independent assays ± standard deviation
Sequence of HDAC2 (Q92769 whole entry, the tested form may be a part): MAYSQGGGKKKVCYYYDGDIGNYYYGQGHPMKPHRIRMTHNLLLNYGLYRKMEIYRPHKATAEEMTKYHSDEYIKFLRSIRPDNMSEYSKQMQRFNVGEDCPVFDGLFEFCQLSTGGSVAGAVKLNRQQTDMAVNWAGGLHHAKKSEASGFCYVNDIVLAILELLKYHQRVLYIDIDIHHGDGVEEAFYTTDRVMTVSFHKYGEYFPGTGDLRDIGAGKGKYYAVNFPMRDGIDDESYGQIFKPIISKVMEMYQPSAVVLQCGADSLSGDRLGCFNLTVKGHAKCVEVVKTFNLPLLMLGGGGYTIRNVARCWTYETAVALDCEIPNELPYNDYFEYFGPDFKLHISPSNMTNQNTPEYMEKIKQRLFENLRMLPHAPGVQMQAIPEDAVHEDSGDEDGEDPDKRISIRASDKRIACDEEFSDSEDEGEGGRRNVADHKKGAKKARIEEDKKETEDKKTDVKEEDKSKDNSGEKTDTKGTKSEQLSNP
Procedure: (§1) Purified HDAC1, HDAC2, and HDAC3 (in complex with the deacetylase activation domain of the human NCOR2 (amino acids 395-498)) were obtained from Enzo Life Sciences (HDAC1, catalog # BML-SE456-0050) and BPS Bioscience (HDAC2, catalog #50002 and HDAC3, catalog #50003), respectively. The enzyme activities were tested using the HDAC-Glo I/II reagents (Promega) according to a protocol provided by the manufacturer.

MDA-MB-468 cells = experiment: Cell viability assay (CellTiter-Glo); format: cell-based; conditions: MDA-MB-468, 72 h; similar trends in MDA-MB-231 and T47D cells
Procedure: MDA-MB-468, MDA-MB-231, and T47D cells were treated with the indicated compounds at different concentrations for 72 h. Cell viability was assessed with CellTiter-Glo® reagents.
Cell lines were obtained from ATCC and subsequently authenticated. Cells were cultured with DMEM supplemented with 10% bovine calf serum, penicillin to 10 units/mL, and streptomycin to 10 μg/mL. For viability assays, 5,000 cells/well were seeded in 96-well plates. Compounds at a specified concentration or DMSO were added 24 h later. Viability assays were performed 72 h after compound addition using the CellTiter-Glo reagents (Promega). For colony formation assay, cells (˜1,000 cells/well) were seeded in a 24-well plate in quadruplicates. At 24 h after seeding, DMSO, XZ9002, or XZ9002-NC were added at a specified concentration. Medium was replaced with freshly prepared medium containing DMSO, XZ9002 or XZ9002-NC every five days until visible colonies appeared, typically in 15 to 20 days after initial cell seeding. Cells were fixed with 4% paraformaldehyde for 15 min and stained with 2% methylene blue in 20% ethanol for 30 min to 1 h. The cells were washed twice with distilled water and dried in air. For western blotting, cell cultures were exposed to compounds as indicated in relevant figures. Medium was removed from culture plate, and 1 x passive lysis buffer was then added, the plates were frozen at −80° C. overnight and thawed at room temperature. The total cell lysates were mixed with a one fifth volume of 6x SDS sample buffer, heated at 95° C. for 5 min and cooled on ice. The lysates were cleared by centrifugation and then subjected to SDS-PAGE and western blotting essentially as described. […]

[4] = target: T2, HDAC3 (in complex with the deacetylase activation domain of the human NCOR2 (amino acids 395-498)) (Homo sapiens, UniProt O15379); experiment: In vitro HDAC activity assay (HDAC-Glo I/II), HDAC3; format: biochemical; conditions: HDAC-Glo I/II; average of three independent assays ± standard deviation
T2 construct: purchased BPS Bioscience 50003
T2 sequence (O15379 whole entry, the tested form may be a part): as the sequence (O15379 whole entry) above
T2 sequence (Q9Y618 395-498 partner limits assumed): as the sequence (Q9Y618 395-498 partner limits assumed) above
Procedure: as §1

HDAC3 degradation in xenograft tumor (HDAC3 [1]): effectively degrade
start of HDAC3 degradation (HDAC3 [3]; 125 nM): ≤ 2 h
time for HDAC3 to rebound to the steady level after washout (HDAC3 [3]; 125 nM for 14 h, then drug-free medium): more than 12 h
HDAC3 degraded (HDAC3 [3]; 125 nM, 8 h): 70%
DC50 (HDAC3 [3]; 14 h treatment, read-out: HDAC3 DC50 (the concentration for 50% protein degradation)): 42 nM
HDAC3 degradation after pre-incubation with proteasome inhibitor MG132 (HDAC3 [3]; MG132 1 μM for 1 h, XZ9002 125 nM): blocked
HDAC3 degradation after pre-incubation with VHL ligand VH032 (HDAC3 [3]; VH032 10 μM for 1 h, XZ9002 125 nM): blocked
IC50 (HDAC2): 1550 ± 70 nM
IC50 [4]: 350 ± 70 nM
SMILES: CCCNNC(=O)c1ccc(-c2ccc(NC(=O)CCCCCCC(=O)N[C@H](C(=O)N3C[C@H](O)C[C@H]3C(=O)N[C@@H](C)c3ccc(-c4scnc4C)cc3)C(C)(C)C)cc2)cc1 [XZ9002, N^1—((S)-1-((2S,4R)-4-hydroxy-2-(((S)-1-(4-(4-methylthiazol-5-yl)phenyl)ethyl)carbamoyl)pyrrolidin-1-yl)-3,3-dimethyl-1-oxobutan-2-yl)-N^5-(4′-(2-propylhydrazine-1-carbonyl)-[1,1′-biphenyl]-4-yl)octanediamide]
histone acetylation [2]: dose-dependently increased
antiproliferative activity (in words) (MDA-MB-468 cells): more potent in killing cancer cells
